Measured values reported in patent US20230219942A1, “COMPOUNDS COMPRISING A THREE RING CORE AS PD-1/PD-L1 BLOCKERS” (RELIVE THERAPEUTICS INC., priority 2020, published 2023).
Read-outs that look alike come from different tables or passages of the source. Each block holds one compound with its values, some of them ahead of it.

Columns and labels:
PD-1/PD-L1 = PD-1/PD-L1 (Homo sapiens, UniProt Q9NZQ7); settings: Table 11; known small molecule PD-1/PD-L1 blockers; cited from earlier work
PD-1 = PD-1 inhibition assay, literature value; read-out: IC50 previously reported; cited from earlier work
PD-1/PD-L1 interaction = biological target: T1, PD-1/PD-L1 interaction (Homo sapiens, UniProt Q9NZQ7); assay: Cisbio PD-1/PD-L1 Homogeneous Time-Resolved Fluorescence (HTRF) binding assay; settings: read-out: Reported IC50
T1 construct: Tag1 or Tag2 (undisclosed kit tag); purchased Cisbio
T1 sequence (Q9NZQ7 19-238 limits assumed): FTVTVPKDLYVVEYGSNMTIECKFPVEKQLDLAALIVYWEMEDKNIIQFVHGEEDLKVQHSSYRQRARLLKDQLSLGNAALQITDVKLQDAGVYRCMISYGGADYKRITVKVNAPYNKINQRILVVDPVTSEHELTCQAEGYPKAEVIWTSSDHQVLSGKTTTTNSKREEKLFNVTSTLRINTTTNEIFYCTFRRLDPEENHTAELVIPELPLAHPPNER
Excerpt: The ability of compounds of the disclosure to inhibit the PD-1/PD-L1 interaction was investigated using a Cisbio PD-1/PD-L1 Homogeneous Time-Resolved Fluorescence (HTRF) binding assay (https://ca.cisbio.net/human-pd1-pd-l1-biochemical-binding-assay-44666).
With the assay, the interaction between PD-L1 and PD-1 is detected by using anti-Tag1 labeled with Europium (HTRF donor) and anti-Tag2 labeled with XL665 (HTRF acceptor). When the donor and acceptor antibodies are brought into close proximity due to PD-L1 and PD-1 binding, excitation of the donor antibody triggers fluorescence resonance energy transfer (FRET) towards the acceptor antibody, which in turn emits specifically at 665 nm. This specific signal is directly proportional to the extent of PD-1/PD-L1 interaction. Thus, a compound blocking the PD-1/PD-L1 interaction causes a reduction in the HTRF signal.
The assay was carried out in accordance with the product insert.

[1] = Table 10, * n = 7, median, P1 and P2 are different isomers
[2] = Table 10, same result in μM, P1 and P2 are different isomers

Sequence of PD-1/PD-L1 (Q9NZQ7 19-290): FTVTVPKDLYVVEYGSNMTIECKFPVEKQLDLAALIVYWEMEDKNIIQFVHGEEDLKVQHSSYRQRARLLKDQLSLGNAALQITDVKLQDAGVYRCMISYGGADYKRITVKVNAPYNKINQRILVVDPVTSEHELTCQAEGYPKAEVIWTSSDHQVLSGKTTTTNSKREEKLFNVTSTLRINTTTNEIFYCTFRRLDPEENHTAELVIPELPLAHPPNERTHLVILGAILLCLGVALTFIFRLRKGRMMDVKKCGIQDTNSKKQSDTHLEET

Compound: Cc1c(Nc2nc(C(F)F)nc3cc(CN4CC[C@](C)(O)C4)cnc23)cccc1-c1cccc(-c2nc3cc(CN4CCC(C(=O)O)CC4)cc(C#N)c3o2)c1C [INB086550]
KD/IC50 (PD-1/PD-L1): <10 nM

Compound: CS(=O)(=O)c1cncc(COc2cc(OCc3cccc(-c4cccc(-c5ccc6c(c5)C[C@@H](N)C6)c4Cl)c3Cl)c(Br)cc2CN2CCCC[C@H]2C(=O)O)c1 [GS-4224, Example A]
KD/IC50 (PD-1/PD-L1): 0.09 nM

Compound: COc1cc(OCc2cccc(-c3ccccc3)c2C)cc(OC)c1CN1CCCCC1C(=O)O (stereo not drawn) [Compound S7911]
IC50 (PD-1): 6 nM

Compound: COc1cc(C(=O)N2CCN([C@@H](C)c3csc(NC[C@@H]4CCCN4Cc4ccc(Br)cc4)n3)CC2)cc(OC)c1OC [Compound A604]
IC50 (PD-1/PD-L1 interaction; Table 9): 0.215 µM
IC50 (PD-1/PD-L1 interaction; Table 9, same result in μM): 0.22 µM

Compound: Cc1cnc(C(=O)N2CCN(Cc3csc(NC[C@@H]4CCCN4Cc4ccc(F)cc4)n3)CC2)cn1 [Compound 2678-51]
IC50 (PD-1/PD-L1 interaction; Table 8, Run: Pure): 8.7 µM

Compound: COc1cc(C(=O)N2CCN(Cc3csc(NC[C@@H]4CCCN4Cc4cccc(Br)c4)n3)CC2)cc(OC)c1OC [Compound A305]
IC50 (PD-1/PD-L1 interaction; Table 9): 36 µM
IC50 (PD-1/PD-L1 interaction; Table 9, same result in μM): 36 µM

Compound: O=C(Cc1ccccc1)N1CCN(Cc2csc(NC[C@@H]3CCCN3Cc3ccc(Br)cc3)n2)CC1 [Compound 2463-262]
IC50 (PD-1/PD-L1 interaction; Table 8, Run: Crude): 3.1 µM

Compound: COc1cc(C(=O)N2CCN(Cc3nsc(NC[C@@H]4CCCN4Cc4ccc(C(F)F)cc4)n3)CC2)cc(OC)c1OC [Compound B316]
IC50 (PD-1/PD-L1 interaction; [1]): 0.025 µM
IC50 (PD-1/PD-L1 interaction; [2]): 0.025 µM

Compound: COc1cc(C(=O)N2C[C@H](C)N(Cc3nsc(NC[C@@H]4C[C@@H](O)CN4Cc4ccc(Br)cc4)n3)C[C@@H]2C)cc(OC)c1OC [Compound B911]
IC50 (PD-1/PD-L1 interaction; [1]): 0.033 µM
IC50 (PD-1/PD-L1 interaction; [2]): 0.033 µM

Compound: COc1ccc(CN2CCC[C@H]2CNc2nc(CN3CCN(C(=O)c4cnc(C)cn4)CC3)cs2)cc1OC [Compound 2678-53]
IC50 (PD-1/PD-L1 interaction; Table 8, Run: Pure): 53 µM

Compound: O=C(c1ccc(Cl)cc1)N1CCN(Cc2nsc(NC[C@@H]3CCCN3Cc3ccc(Br)cc3)n2)CC1 [Compound B411]
IC50 (PD-1/PD-L1 interaction; [1]): 1.02 µM
IC50 (PD-1/PD-L1 interaction; [2]): 1 µM

Compound: COc1ccc(CN2CCC[C@H]2CNc2nc(CN3CCN(C(=O)CCc4nc5ccccc5[nH]4)CC3)cs2)cc1OC [Compound 2678-5]
IC50 (PD-1/PD-L1 interaction; Table 8, Run: Pure): 9.2 µM

Compound: CCCCCC(=O)N1CCN(Cc2csc(NC[C@@H]3CCCN3CCCc3nc4ccccc4[nH]3)n2)CC1 [Compound 2678-32]
IC50 (PD-1/PD-L1 interaction; Table 8, Run: Pure (70% Pure)): 7.9 µM

Compound: COc1cc(C(=O)N2CCN(Cc3csc(NC[C@@H]4CCCN4Cc4nnc(C)s4)n3)CC2)cc(OC)c1OC [Compound A311]
IC50 (PD-1/PD-L1 interaction; Table 9): > 50 µM
IC50 (PD-1/PD-L1 interaction; Table 9, same result in μM): > 50 µM

Continued, values first:

IC50 (PD-1/PD-L1 interaction; Table 9): 0.11 µM
IC50 (PD-1/PD-L1 interaction; Table 9, same result in μM): 0.11 µM
Compound: COc1cc(C(=O)N2CCN([C@H](C)c3csc(NC[C@@H]4CCCN4Cc4ccc(Br)cc4)n3)CC2)cc(OC)c1OC [Compound A603]

IC50 (PD-1/PD-L1 interaction; Table 9): 0.353 µM
IC50 (PD-1/PD-L1 interaction; Table 9, same result in μM): 0.35 µM
Compound: COc1cc(C(=O)N2CCN(Cc3csc(NC[C@@H]4CCCN4Cc4ccc(C(F)F)cc4)n3)CC2)cc(OC)c1OC [Compound B315]

IC50 (PD-1/PD-L1 interaction; [1]): 0.012 µM
IC50 (PD-1/PD-L1 interaction; [2]): 0.012 µM
Compound: COc1cc(C(=O)N2CCN([C@@H](C)c3nsc(NC[C@@H]4CCCN4Cc4ccc(Br)cc4)n3)CC2)cc(OC)c1OC [Compound B806]

IC50 (PD-1/PD-L1 interaction; Table 8, Run: Pure): 0.87 µM
Compound: O=C(c1ccco1)N1CCN(Cc2csc(NC[C@@H]3CCCN3Cc3ccc(Br)cc3)n2)CC1 [Compound 2678-66]

IC50 (PD-1/PD-L1 interaction; [1]): 0.096 µM
IC50 (PD-1/PD-L1 interaction; [2]): 0.096 µM
Compound: COc1cc(C(=O)N2CCN(Cc3nsc(NC[C@@H]4CCCCN4Cc4ccc(Br)cc4)n3)CC2)cc(OC)c1OC [Compound B710]

IC50 (PD-1/PD-L1 interaction; [1]): 8 µM
IC50 (PD-1/PD-L1 interaction; [2]): 8 µM
Compound: COc1cc(C(=O)N2CCN(Cc3nccc(NC[C@@H]4CCCN4Cc4ccc(Br)cc4)n3)CC2)cc(OC)c1OC [Compound B709]

IC50 (PD-1/PD-L1 interaction; Table 9): 0.62 µM
IC50 (PD-1/PD-L1 interaction; Table 9, same result in μM): 0.62 µM
Compound: COc1ccc(C(=O)N2CCN(Cc3csc(NC[C@@H]4CCCN4Cc4ccc(Br)cc4)n3)CC2)cc1OC [Compound A402]

IC50 (PD-1/PD-L1 interaction; [1]): 0.216 µM
IC50 (PD-1/PD-L1 interaction; [2]): 0.22 µM
Compound: Cn1cc(C(=O)N2CCN(Cc3nsc(NC[C@@H]4CCCN4Cc4ccc(Br)cc4)n3)CC2)ccc1=O [Compound B415]

IC50 (PD-1/PD-L1 interaction; Table 9): 9.2 µM
IC50 (PD-1/PD-L1 interaction; Table 9, same result in μM): 9.2 µM
Compound: COc1ccc(CN2CCC[C@H]2CNc2nc(CN3CCN(C(=O)c4cc(OC)c(OC)c(OC)c4)CC3)cs2)cc1 [Compound A307]

IC50 (PD-1/PD-L1 interaction; Table 9): 1.2 µM
IC50 (PD-1/PD-L1 interaction; Table 9, same result in μM): 1.2 µM
Compound: COc1ccc(C(=O)N2CCN(Cc3csc(NC[C@@H]4CCCN4Cc4ccc(Br)cc4)n3)CC2)cc1 [Compound A401]
